# Reference: US8952024B2, “Herbicidal pyrimidone derivatives” (E I du Pont de Nemours and Company, priority 2009, dated 2015)
# Read-outs that look alike come from different tables or passages of the source.
# Columns and labels:
# Type in all cases: in vivo
# [1] = test system: barnyardgrass (Echinochloa crus-galli); assay: Test B flooded paddy test; conditions: Echinochloa crus-galli, 360 h
# Method in brief: (§1)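 Plants were grown to the 2-leaf stage, then pots were flooded to 3 cm above the soil and compounds were applied directly into the paddy water. That depth was held throughout. After 13 to 15 days in a greenhouse, injury was visually rated against controls on a 0–100 scale.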
# [2] = test system: umbrella sedge (Cyperus difformis); assay: Test B flooded paddy test; conditions: Cyperus difformis, 360 h
# Method in brief: as §1
# [3] = test system: ducksalad (Heteranthera limosa); assay: Test B flooded paddy test; conditions: Heteranthera limosa, 360 h
# Method in brief: as §1
# rice (Oryza sativa) = assay: Test B flooded paddy test; conditions: Oryza sativa
# Method in brief: as §1
# [4] = test system: pigweed (Amaranthus retroflexus); assay: Test A pre-/postemergence plant response; conditions: Amaranthus retroflexus, 240 h; for pest or weed control at 125 g/ha: 125 g ai/ha
# Method in brief: (§2)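 Both pre- and postemergence treatments are applied simultaneously, using chemicals formulated in a non-phytotoxic solvent mixture with surfactant. Postemergence plants are 2–10 cm high with one to two leaves. After approximately ten days in a greenhouse, injury is scored visually from 0 (none) to 100 (complete control) relative to untreated plants.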
# [5] = test system: barnyardgrass (Echinochloa crus-galli); assay: Test A pre-/postemergence plant response; conditions: Echinochloa crus-galli, 240 h; for pest or weed control at 125 g/ha: 125 g ai/ha; for pest or weed control at 500 g/ha: 500 g ai/ha
# Method in brief: as §2
# corn (Zea mays) = assay: Test A pre-/postemergence plant response; conditions: Zea mays, 240 h; for Corn plant response rating (crop injury, 0 = no effect, 100 = complete kill) at 500 g/ha: 500 g ai/ha
# Method in brief: as §2
# [6] = test system: giant foxtail (Setaria faberii); assay: Test A pre-/postemergence plant response; conditions: Setaria faberi, 240 h; for pest or weed control at 125 g/ha: 125 g ai/ha; for pest or weed control at 500 g/ha: 500 g ai/ha
# Method in brief: as §2
# [7] = test system: morningglory (Ipomoea spp.); assay: Test A pre-/postemergence plant response; conditions: Ipomoea, 240 h; for pest or weed control at 125 g/ha: 125 g ai/ha; for pest or weed control at 500 g/ha: 500 g ai/ha
# Method in brief: as §2
# [8] = test system: velvetleaf (Abutilon theophrasti); assay: Test A pre-/postemergence plant response; conditions: Abutilon theophrasti, 240 h; for pest or weed control at 125 g/ha: 125 g ai/ha; for pest or weed control at 500 g/ha: 500 g ai/ha
# Method in brief: as §2
# [9] = test system: large crabgrass (Digitaria sanguinalis); assay: Test A pre-/postemergence plant response; conditions: Digitaria sanguinalis, 240 h; for pest or weed control at 125 g/ha: 125 g ai/ha; for pest or weed control at 500 g/ha: 500 g ai/ha
# Method in brief: as §2
# [10] = test system: wheat (Triticum aestivum); assay: Test A pre-/postemergence plant response; conditions: Triticum aestivum, 240 h; for plant injury at 125 g/ha: 125 g ai/ha; for plant injury at 500 g/ha: 500 g ai/ha
# Method in brief: as §2
structure (smiles),measurement,setting,value
"CCn1ncc(C(=O)c2cnc(-c3ccccc3)n(Cc3ccccc3)c2=O)c1O [Compound 20, 5-[(1-ethyl-5-hydroxy-1H-pyrazol-4-yl)carbonyl]-2-phenyl-3-(phenylmethyl)-4(3H)-pyrimidinone]",pest or weed control at 250 g/ha,"[1]; 250 g ai/ha, flooded paddy test, visual rating on 0 to 100 scale (0 no effect, 100 complete control) after 13 to 15 days, read-out: Plant response rating, Flood, Barnyardgrass",0%
same,pest or weed control at 31 g/ha,"[1]; Flood (flooded paddy test), 31 g ai/ha, scale of 0 to 100 where 0 is no effect and 100 is complete control, 13 to 15 days, read-out: Plant response rating, Barnyardgrass",0%
same,pest or weed control at 62 g/ha,"[1]; Flood (flooded paddy test), 62 g ai/ha, scale 0 to 100, 0 is no effect, 100 is complete control, 13 to 15 days, read-out: Plant response rating, Barnyardgrass",0%
same,pest or weed control at 125 g/ha,"[1]; Flood (flooded paddy test), 125 g ai/ha, scale 0 to 100, 0 is no effect, 100 is complete control, 13 to 15 days, read-out: Plant response rating, Barnyardgrass",0%
same,pest or weed control at 250 g/ha,"[2]; 250 g ai/ha, flooded paddy test, visual rating on 0 to 100 scale (0 no effect, 100 complete control) after 13 to 15 days, read-out: Plant response rating, Flood, Sedge, Umbrella",60%
same,pest or weed control at 31 g/ha,"[2]; Flood (flooded paddy test), 31 g ai/ha, scale of 0 to 100 where 0 is no effect and 100 is complete control, 13 to 15 days, read-out: Plant response rating, Sedge, Umbrella",0%
same,pest or weed control at 62 g/ha,"[2]; Flood (flooded paddy test), 62 g ai/ha, scale 0 to 100, 0 is no effect, 100 is complete control, 13 to 15 days, read-out: Plant response rating, Sedge, Umbrella",40%
same,pest or weed control at 125 g/ha,"[2]; Flood (flooded paddy test), 125 g ai/ha, scale 0 to 100, 0 is no effect, 100 is complete control, 13 to 15 days, read-out: Plant response rating, Sedge, Umbrella",50%
same,pest or weed control at 250 g/ha,"[3]; 250 g ai/ha, flooded paddy test, visual rating on 0 to 100 scale (0 no effect, 100 complete control) after 13 to 15 days, read-out: Plant response rating, Flood, Ducksalad",75%
same,pest or weed control at 31 g/ha,"[3]; Flood (flooded paddy test), 31 g ai/ha, scale of 0 to 100 where 0 is no effect and 100 is complete control, 13 to 15 days, read-out: Plant response rating, Ducksalad",60%
same,pest or weed control at 62 g/ha,"[3]; Flood (flooded paddy test), 62 g ai/ha, scale 0 to 100, 0 is no effect, 100 is complete control, 13 to 15 days, read-out: Plant response rating, Ducksalad",60%
same,pest or weed control at 125 g/ha,"[3]; Flood (flooded paddy test), 125 g ai/ha, scale 0 to 100, 0 is no effect, 100 is complete control, 13 to 15 days, read-out: Plant response rating, Ducksalad",65%
same,plant injury at 250 g/ha,"rice (Oryza sativa); 250 g ai/ha, flooded paddy test, visual rating on 0 to 100 scale (0 no effect, 100 complete control) after 13 to 15 days, read-out: Plant response rating, Flood, Rice",15%
same,plant injury at 31 g/ha,"rice (Oryza sativa); Flood (flooded paddy test), 31 g ai/ha, scale of 0 to 100 where 0 is no effect and 100 is complete control, 13 to 15 days, read-out: Plant response rating, Rice",0%
same,plant injury at 62 g/ha,"rice (Oryza sativa); Flood (flooded paddy test), 62 g ai/ha, scale 0 to 100, 0 is no effect, 100 is complete control, 13 to 15 days, read-out: Plant response rating, Rice",0%
same,plant injury at 125 g/ha,"rice (Oryza sativa); Flood (flooded paddy test), 125 g ai/ha, scale 0 to 100, 0 is no effect, 100 is complete control, 13 to 15 days, read-out: Plant response rating, Rice",0%
same,pest or weed control at 125 g/ha,"[4]; post-emergence, Postemergence, visual injury, 0 to 100 scale (0 no effect, 100 complete control), approx. ten days, read-out: Pigweed plant response rating",10%
same,pest or weed control at 500 g/ha,"[4]; post-emergence, Postemergence, 500 g ai/ha, 0 to 100 scale, 0 = no effect, 100 = complete control, approx. ten days, read-out: Plant response rating, Pigweed",50%
same,pest or weed control at 125 g/ha,"[4]; pre-emergence, Preemergence, 0 to 100 scale, 0 = no effect, 100 = complete control, read-out: Plant response rating, Pigweed",0%
same,pest or weed control at 125 g/ha,"[5]; post-emergence, Postemergence, visual injury, 0 to 100 scale (0 no effect, 100 complete control), approx. ten days, read-out: Barnyardgrass plant response rating",0%
same,pest or weed control at 500 g/ha,"[5]; post-emergence, Postemergence, 0 to 100 scale, 0 = no effect, 100 = complete control, approx. ten days, read-out: Plant response rating, Barnyardgrass",10%
same,pest or weed control at 125 g/ha,"[5]; pre-emergence, Preemergence, 0 to 100 scale, 0 = no effect, 100 = complete control, read-out: Plant response rating, Barnyardgrass",0%
same,pest or weed control at 500 g/ha,"[5]; pre-emergence, Preemergence, visual injury, 0 to 100 scale (0 no effect, 100 complete control), approx. ten days, read-out: Plant response rating, Barnyardgrass",20%
same,plant injury at 125 g/ha,"corn (Zea mays); post-emergence, Postemergence, 125 g ai/ha, visual injury, 0 to 100 scale (0 no effect, 100 complete control), approx. ten days, read-out: Corn plant response rating",0%
same,"Corn plant response rating (crop injury, 0 = no effect, 100 = complete kill) at 500 g/ha","corn (Zea mays); post-emergence, Postemergence, 0 to 100 scale, 0 = no effect, 100 = complete control, approx. ten days",10%
same,"Corn plant response rating (crop injury, 0 = no effect, 100 = complete kill) at 125 g/ha","corn (Zea mays); pre-emergence, Preemergence, 125 g ai/ha, 0 to 100 scale, 0 = no effect, 100 = complete control",0%
same,"Corn plant response rating (crop injury, 0 = no effect, 100 = complete kill) at 500 g/ha","corn (Zea mays); pre-emergence, Preemergence, visual injury, 0 to 100 scale (0 no effect, 100 complete control), approx. ten days",0%
same,pest or weed control at 125 g/ha,"[6]; post-emergence, Postemergence, visual injury, 0 to 100 scale (0 no effect, 100 complete control), approx. ten days, read-out: Foxtail, Giant plant response rating",0%
same,pest or weed control at 500 g/ha,"[6]; post-emergence, Postemergence, 0 to 100 scale, 0 = no effect, 100 = complete control, approx. ten days, read-out: Plant response rating, Foxtail, Giant",0%
same,pest or weed control at 125 g/ha,"[6]; pre-emergence, Preemergence, 0 to 100 scale, 0 = no effect, 100 = complete control, read-out: Plant response rating, Foxtail, Giant",0%
same,pest or weed control at 500 g/ha,"[6]; pre-emergence, Preemergence, visual injury, 0 to 100 scale (0 no effect, 100 complete control), approx. ten days, read-out: Plant response rating, Foxtail, Giant",20%
same,pest or weed control at 125 g/ha,"[7]; post-emergence, Postemergence, visual injury, 0 to 100 scale (0 no effect, 100 complete control), approx. ten days, read-out: Morningglory plant response rating",0%
same,pest or weed control at 500 g/ha,"[7]; post-emergence, Postemergence, 0 to 100 scale, 0 = no effect, 100 = complete control, approx. ten days, read-out: Plant response rating, Morningglory",10%
same,pest or weed control at 125 g/ha,"[7]; pre-emergence, Preemergence, 0 to 100 scale, 0 = no effect, 100 = complete control, read-out: Plant response rating, Morningglory",0%
same,pest or weed control at 500 g/ha,"[7]; pre-emergence, Preemergence, visual injury, 0 to 100 scale (0 no effect, 100 complete control), approx. ten days, read-out: Plant response rating, Morningglory",0%
same,pest or weed control at 125 g/ha,"[8]; post-emergence, Postemergence, visual injury, 0 to 100 scale (0 no effect, 100 complete control), approx. ten days, read-out: Velvetleaf plant response rating",20%
same,pest or weed control at 500 g/ha,"[8]; post-emergence, Postemergence, 0 to 100 scale, 0 = no effect, 100 = complete control, approx. ten days, read-out: Plant response rating, Velvetleaf",70%
same,pest or weed control at 125 g/ha,"[8]; pre-emergence, Preemergence, 0 to 100 scale, 0 = no effect, 100 = complete control, read-out: Plant response rating, Velvetleaf",0%
same,pest or weed control at 500 g/ha,"[8]; pre-emergence, Preemergence, visual injury, 0 to 100 scale (0 no effect, 100 complete control), approx. ten days, read-out: Plant response rating, Velvetleaf",50%
same,pest or weed control at 125 g/ha,"[9]; post-emergence, Postemergence, visual injury, 0 to 100 scale (0 no effect, 100 complete control), approx. ten days, read-out: Crabgrass, Large plant response rating",0%
same,pest or weed control at 500 g/ha,"[9]; post-emergence, Postemergence, 0 to 100 scale, 0 = no effect, 100 = complete control, approx. ten days, read-out: Plant response rating, Crabgrass, Large",10%
same,pest or weed control at 125 g/ha,"[9]; pre-emergence, Preemergence, 0 to 100 scale, 0 = no effect, 100 = complete control, read-out: Plant response rating, Crabgrass, Large",0%
same,pest or weed control at 500 g/ha,"[9]; pre-emergence, Preemergence, visual injury, 0 to 100 scale (0 no effect, 100 complete control), approx. ten days, read-out: Plant response rating, Crabgrass, Large",30%
same,plant injury at 125 g/ha,"[10]; post-emergence, Postemergence, visual injury, 0 to 100 scale (0 no effect, 100 complete control), approx. ten days, read-out: Wheat plant response rating",0%
same,plant injury at 500 g/ha,"[10]; post-emergence, Postemergence, 0 to 100 scale, 0 = no effect, 100 = complete control, approx. ten days, read-out: Plant response rating, Wheat",0%
same,plant injury at 125 g/ha,"[10]; pre-emergence, Preemergence, 0 to 100 scale, 0 = no effect, 100 = complete control, read-out: Plant response rating, Wheat",0%
same,plant injury at 500 g/ha,"[10]; pre-emergence, Preemergence, visual injury, 0 to 100 scale (0 no effect, 100 complete control), approx. ten days, read-out: Plant response rating, Wheat",0%
